Patent US10350334B2, “Catheter locking solution having antimicrobial and anticoagulation properties” (Becton, Dickinson and Company, priority 2009, dated 2019)

How the values were obtained:
Type in all cases: cell-based
[1] = system: Staphylococcus epidermidis; assay: Planktonic cell tests; settings: 12 mg/mL, 30 and 60 minutes
Experimental: In the planktonic cell tests, bupivacine was tested against non-adhering coagulase negative S. epidermidis, which is the bacterial species most prominent in the pathogenesis of CR-BSI. The planktonic cell experiments were performed by the following procedures. First, bacterial suspensions were prepared. Particularly, using BD BBL™ Qualiswab™, S. epidermidis was plated on a Tryptic Soy Broth (TSB) Petri Dish and grown overnight at 37° C. Using a sterile loop, a colony of S. epidermidis was picked up from the TSB Petri Dish and placed into a sterile flask containing 25 mL of sterile TSB media. The flask was then placed in a 37° C. shaking incubator and was shaken at 150 RPM overnight. The next day, 15 mL of the prepared bacterial suspension was placed into an autoclaved centrifuge tube and centrifuged at 10,000 RPM for 10 minutes using a Sorval Centrifuge. The bacteria from the bacterial suspension were rinsed in 0.9% saline by discarding the liquid media (after centrifugation step) and by resuspending the microbial pellet in 20 mL of sterile 0.9% saline. The bacteria were centrifuged and rinsed twice more, for a total of three saline rinses. […]
Bulk concentrations of the bupivacaine and/or vancomyacin (as noted in FIG. 1) were prepared in separate beakers and were filter sterilized. […] Samples were also assessed at time 0, in which there was no exposure to antimicrobials. […]

[2] = system: Staphylococcus epidermidis biofilm; assay: Catheter biofilm eradication (catheter segment test) on silicone tubing; settings: 1 hour, silicone catheter segments
Experimental: (§1) To understand the antimicrobial effects of the local anesthetics used in the lock solution of the present invention in a clinical setting, a biofilm was grown on silicone catheter-like tubing and treated with various concentrations of local anesthetics. First, a sterile silicone catheter-like tube containing 10 mL TSB media was inoculated with a BD BBL™ Qualiswab™, and placed in an incubator at 37° C. overnight. The next day, a sterile flask containing 25 mL TSB (for bacterial species) or 25 mL SDB (for fungal species) was inoculated with the cultured cells. The morning of the experiment, a new flask containing 25 mL of media was inoculated with the new overnight suspension. These steps were taken to ensure that cells were in the log phase, which for S. epidermidis was ˜3-4 hours, and for C. albicans was around ˜18 hrs. […] Microbial concentrations were adjusted to 1×10^5 CFU/mL by dilution with appropriate media. Silicone catheter-like tubing was terminally sterilized by autoclaving the tube for 45 minutes at 121° C. The sterilized catheter-like tubing was inoculated with 1×10^5 CFU/mL for 2 hours under continuous flow. Continuous flow was created by using a peristaltic pump, in which bacterial suspension was flowed through the catheter segments into a waste reservoir. After the 2 hour time period, the same set up was used to pump TSB media through the tubing for an additional 24 hours to allow biofilm to form on the walls of the catheter lumen. After 24 hours, sterilized saline was pumped through the lumen for 30 minutes to rinse the catheters. Catheters were then cut into 1 inch segments using sterile techniques. Catheter segments were dropped into sterile tubes containing 4 mL of antimicrobials, and incubated in a 37° C. incubator shaker for 1 hour. Segments were removed from treatment tubes and placed into new tubes filled with 6 mL of sterile saline. Each segment was swabbed with a sterile swab and both the tube and the swab were sonicated (Ultrasonic cleaner VWR Model 250T) for 3 minutes. Tubes and swabs were then vortexed (Fisher Scientific Vortex Mixer #02-215-365) for 30 seconds each. One hundred microliters of suspension was plated onto TSB agar plates (SDB for fungal species). The remaining 5.9 mL of suspension was passed through 0.4 μm filters and filters were placed on TSB plates. This step was taken to ensure that all possible bacteria were being recovered. All TSB plates were then incubated at 37° C. in a static incubator for 24-48 hours, at which time colony forming units were counted.

Candida albicans biofilm = assay: as above; settings: 1 hour, silicone catheter segments
Experimental: as §1

Row | Structure (SMILES) | antimicrobial effect against planktonic Staphylococcus epidermidis [1] | Log reduction of established biofilm ([2]; 16 mg/mL) | Log reduction of established biofilm (Candida albicans biofilm) | Log reduction of established biofilm ([2]; 30 mg/mL) | eradication of established biofilm (Candida albicans biofilm; 30 mg/mL)
1 | CCCCN1CCCCC1C(=O)Nc1c(C)cccc1C.Cl (centres unmarked) [Bupivacaine, Bupivacaine HCl] | significant antimicrobial effect | ~0.5 Log | ~1 Log |  | 
2 | CCCCNc1ccc(C(=O)OCCN(C)C)cc1.Cl [Tetracaine, Tetracaine HCl] |  |  |  | 1.7 Log | completely eradicated
